{"source": "patent US20060122179A1", "about": "“Methods and compositions using JNK inhibitors for treatment and management of central nervous system injury” (priority 2004, published 2006)", "key": {"[1]": {"test_system": "rat ventral mesencephalan dopaminergic neurons", "experiment": "[3H]Dopamine cell culture assay (6-OHDA neurotoxicity)", "format": "cell-based", "conditions": "6-OHDA 30 μM, uptake 22 hrs after exposure", "protocol": "Cultures of dopaminergic neurons were prepared according to a modification of the procedure described by Raymon and Leslie (J. Neurochem. 62:1015-1024, 1994). Time-mated pregnant rats were sacrificed on embyronic day 14-15 (crown rump length 11-12 mm) and the embryos removed by cesarean section. The ventral mesencephalon, containing the dopaminergic neurons, was dissected from each embryo. Tissue pieces from approximately 48 embryos were pooled and dissociated both enzymatically and mechanically. An aliquot from the resulting cell suspension was counted and the cells were plated in high glucose DMEM/F12 culture medium with 10% fetal bovine serum at a density of 1×10^5 cells/well of a Biocoat poly-D-lysine-coated 96-well plate. The day following plating was considered 1 day in vitro (DIV). Cells were maintained in a stable environment at 37° C., 95% humidity, and 5% CO2. A partial medium change was performed at 3 DIV. […]\n[^3H]Dopamine uptake is used as a measure of the health and integrity of dopaminergic neurons in culture (Prochiantz et al., PNAS 76: 5387-5391, 1979). […] Briefly, cells treated with 6-OHDA in the presence and absence of 5-amino-anthra(9,1-cd)isothiazol-6-one were assessed in the uptake assay 22 hrs after exposure to 6-OHDA. […] Radioactivity was removed and the cultures were washed 3× with ice cold PBS. […]"}, "[2]": {"experiment": "Brain-blood plasma distribution in vivo", "set-up": "species or system Sprague-Dawley rats", "conditions": "rat, 10 mg/kg intravenously, 2 hr post-dose", "protocol": "5-Amino-anthra(9,1-cd)isothiazol-6-one was administered intravenously (10 mg/kg) into the veins of Sprague-Dawley rats. After 2 hr, blood samples were obtained from the animals and their vascular systems were perfused with approximately 100 mL of saline to rid their brains of blood. The brains were removed from the animals, weighed, and homogenized in a 50 mL conical tube containing 10 equivalents (w/v) of methanol/saline (1:1) using a Tissue Tearer (Fischer Scientific). The homogenized material was extracted by adding 600 μL of cold methanol to 250 μL of brain homogenate vortexed for 30 sec and subjected to centrifugation for 5 min. After centrifugation, 600 μL of the resulting supernatant was transferred to a clean tube and evaporated at room temperature under reduced pressure to provide a pellet. […] The brain homogenate analysis samples, plasma analysis samples, and standard analysis samples were analyzed and compared using HPLC by injecting 100 μL of a sample onto a 5 μm C-18 Luna column (4.6 mm×150 mm, commercially available from Phenomenex of Torrance, Calif.) and eluting at 1 mL/min with a linear gradient of 30% aqueous acetonitrile containing 0.1% trifluoroacetic acid to 90% aqueous acetonitrile containing 0.1% trifluoroacetic acid over 8 minutes and holding at 90% aqueous acetonitrile containing 0.1% trifluoroacetic acid for 3 min. with absorbance detection at 450 nm. […]"}, "[3]": {"experiment": "Solubility in aqueous media (remark)", "format": "physicochemical"}}}
{"compound": "Nc1ccc2snc3c2c1C(=O)c1ccccc1-3", "note": "[5-amino-anthra(9,1-cd)isothiazol-6-one]", "values": [{"measurement": "protection of dopaminergic neurons from 6-OHDA ([3H]dopamine uptake)", "setting": "[1]", "result": "protects rat ventral mesencephalan neurons from the toxic effects of 6-OHDA"}, {"measurement": "brain-drug concentration", "setting": "[2]", "result": "approximately 65 nmole/g"}, {"measurement": "solubility in aqueous media", "setting": "[3]", "result": "limited solubility"}]}
